Assay results: patent publication US20260327214A1, “1,3,4-OXADIAZOLE DERIVATIVE COMPOUNDS AS HISTONE DEACETYLASE 6 INHIBITOR, AND USES THEREOF” (CHONG KUN DANG PHARMACEUTICAL CORP., priority 2022, published 2026)

Legend:
human recombinant HDAC1 = target: T1, human recombinant HDAC1 (Homo sapiens, UniProt Q13547); assay: HDAC1 enzyme activity inhibition test (HDAC Fluorometric Drug Discovery Kit); format: biochemical; settings: 30° C., 60 minutes, 10 μM substrate
T1 construct: purchased Enzo Life Science BML-SE456
T1 sequence (Q13547 whole entry): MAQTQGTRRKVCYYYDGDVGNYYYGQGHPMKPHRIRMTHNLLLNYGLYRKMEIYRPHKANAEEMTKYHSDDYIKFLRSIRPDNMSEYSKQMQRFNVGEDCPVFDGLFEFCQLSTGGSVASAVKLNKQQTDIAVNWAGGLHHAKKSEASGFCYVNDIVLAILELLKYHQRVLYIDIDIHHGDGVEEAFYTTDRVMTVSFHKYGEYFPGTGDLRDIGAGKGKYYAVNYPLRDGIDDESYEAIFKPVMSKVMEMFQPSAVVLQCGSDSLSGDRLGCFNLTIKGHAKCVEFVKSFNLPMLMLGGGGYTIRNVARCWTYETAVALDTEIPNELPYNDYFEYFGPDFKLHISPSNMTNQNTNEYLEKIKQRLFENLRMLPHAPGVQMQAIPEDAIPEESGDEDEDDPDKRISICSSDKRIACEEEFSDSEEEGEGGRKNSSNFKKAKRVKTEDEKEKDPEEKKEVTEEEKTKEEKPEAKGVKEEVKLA
Procedure: (§1) The following experiment was conducted to confirm the HDAC6 selectivity of the compound represented by Chemical Formula I of the present invention through the HDAC1 and HDAC6 enzyme activity inhibition test.
(§2) HDAC enzyme activity was measured using HDAC Fluorometric Drug Discovery Kit (BML-AK511, 516) manufactured by Enzo Life Science. For the HDAC1 enzyme activity test, human recombinant HDAC1 (BML-SE456) was used as an enzyme source and Fluor de Lys-®-″SIRT1 (BNL-KI177) was used as a substrate. The 5-fold diluted compound was dispensed in a 96-well plate, 0.3 μg of enzyme and 10 μM substrate were added to each well and reacted at 30° C. for 60 minutes, and Fluor de Lys® Developer II(BML-KI176) was added and reacted for 30 minutes to complete the reaction. Then, the fluorescence value (Ex 360, Em 460) was measured using a multiplate reader (Flexstation 3, Molecular Device). The HDAC6 enzyme was tested using the same protocol as the HDAC1 enzyme activity test method employing human recombinant HDAC6 (382180) from Calbiochem. For the final result, each […] value was calculated using the GraphPad Prism 4.0 program.

human recombinant HDAC6 = target: T2, human recombinant HDAC6 (Homo sapiens, UniProt Q9UBN7); assay: HDAC6 enzyme activity inhibition test (HDAC Fluorometric Drug Discovery Kit); format: biochemical; settings: for HDAC6 selectivity (fold): HDAC6 over HDAC1; for IC50: human recombinant HDAC6, same protocol as HDAC1
T2 construct: purchased Calbiochem 382180
T2 sequence (Q9UBN7 1-1215): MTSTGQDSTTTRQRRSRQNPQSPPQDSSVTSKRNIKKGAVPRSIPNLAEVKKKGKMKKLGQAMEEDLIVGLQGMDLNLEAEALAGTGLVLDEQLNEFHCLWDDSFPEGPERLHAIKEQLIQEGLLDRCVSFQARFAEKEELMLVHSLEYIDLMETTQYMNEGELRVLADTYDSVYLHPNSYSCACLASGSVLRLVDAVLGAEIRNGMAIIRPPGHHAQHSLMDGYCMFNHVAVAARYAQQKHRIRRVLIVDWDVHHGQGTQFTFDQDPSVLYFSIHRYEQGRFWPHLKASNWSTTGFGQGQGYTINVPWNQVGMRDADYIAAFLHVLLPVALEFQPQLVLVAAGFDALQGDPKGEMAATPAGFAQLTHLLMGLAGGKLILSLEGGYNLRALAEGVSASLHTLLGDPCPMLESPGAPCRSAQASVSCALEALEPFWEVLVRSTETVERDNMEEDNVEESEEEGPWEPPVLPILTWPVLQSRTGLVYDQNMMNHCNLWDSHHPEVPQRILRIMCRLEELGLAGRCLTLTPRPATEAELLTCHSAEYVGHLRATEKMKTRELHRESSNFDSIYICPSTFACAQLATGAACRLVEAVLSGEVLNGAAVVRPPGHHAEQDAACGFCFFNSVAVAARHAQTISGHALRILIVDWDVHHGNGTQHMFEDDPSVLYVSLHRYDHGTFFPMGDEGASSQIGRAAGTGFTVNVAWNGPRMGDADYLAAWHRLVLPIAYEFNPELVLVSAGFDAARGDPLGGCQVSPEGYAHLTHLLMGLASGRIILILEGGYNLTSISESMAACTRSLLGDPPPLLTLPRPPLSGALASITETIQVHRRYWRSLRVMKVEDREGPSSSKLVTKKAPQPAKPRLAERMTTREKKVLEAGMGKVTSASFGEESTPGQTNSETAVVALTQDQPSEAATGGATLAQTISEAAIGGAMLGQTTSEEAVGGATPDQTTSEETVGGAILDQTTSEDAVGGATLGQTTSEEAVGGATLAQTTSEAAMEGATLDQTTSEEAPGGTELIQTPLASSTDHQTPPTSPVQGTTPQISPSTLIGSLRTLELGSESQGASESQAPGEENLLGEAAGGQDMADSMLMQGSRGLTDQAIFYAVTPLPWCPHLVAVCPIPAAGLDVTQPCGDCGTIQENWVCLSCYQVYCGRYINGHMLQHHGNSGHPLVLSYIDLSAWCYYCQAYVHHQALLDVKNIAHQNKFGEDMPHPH
Procedure: as §1, §2

Structure (SMILES)	IC50 (human recombinant HDAC1) [nM]	HDAC6 selectivity (fold) (human recombinant HDAC6)	IC50 (human recombinant HDAC6) [nM]
O=c1oc(-c2cccs2)nn1Cc1ccc(-c2nnc(C(F)F)o2)cn1 [Compound 5, 3-[[5-[5-(difluoromethyl)-1,3,4-oxadiazol-2-yl]-2-pyridyl]methyl]-5-(2-thienyl)-1,3,4-oxadiazol-2-one]	> 50000	589	84.9
CC(C)N1CCN(c2cccc(-c3nn(Cc4ccc(-c5nnc(C(F)F)o5)cn4)c(=O)o3)n2)CC1 [Compound 6, 3-[[5-[5-(difluoromethyl)-1,3,4-oxadiazol-2-yl]-2-pyridyl]methyl]-5-[6-(4-isopropylpiperazin-1-yl)-2-pyridyl]-1,3,4-oxadiazol-2-one]	> 50000	1078	46.4
O=c1oc(-c2cccc(N3CCN(C4COC4)CC3)n2)nn1Cc1ccc(-c2nnc(C(F)F)o2)cn1 [Compound 7, 3-[[5-[5-(difluoromethyl)-1,3,4-oxadiazol-2-yl]-2-pyridyl]methyl]-5-[6-[4-(oxetane-3-yl)piperazin-1-yl]-2-pyridyl]-1,3,4-oxadiazol-2-one]	> 50000	600	83.3
O=c1oc(-c2cccc(C3CCN(C4COC4)CC3)c2)nn1Cc1ccc(-c2nnc(C(F)F)o2)cn1 [Compound 9, 3-[[5-[5-(difluoromethyl)-1,3,4-oxadiazol-2-yl]-2-pyridyl]methyl]-5-[3-[1-(oxetane-3-yl)-4-piperidyl]phenyl]-1,3,4-oxadiazol-2-one]	> 50000	585	85.5
CC1CC(N2CCC(c3cccc(-c4nn(Cc5ccc(-c6nnc(C(F)F)o6)cn5)c(=O)o4)c3)CC2)C1 (stereo not drawn) [Compound 10, 3-[[5-[5-(difluoromethyl)-1,3,4-oxadiazol-2-yl]-2-pyridyl]methyl]-5-[3-[1-(3-methylcyclobutyl)-4-piperidyl]phenyl]-1,3,4-oxadiazol-2-one]	> 50000	666	75.1
CC(C)N1CCc2ccc(-c3nn(Cc4ccc(-c5nnc(C(F)F)o5)cn4)c(=O)o3)cc2C1 [Compound 13, 3-[[5-[5-(difluoromethyl)-1,3,4-oxadiazol-2-yl]-2-pyridyl]methyl]-5-(2-isopropyl-3,4-dihydro-1H-isoquinolin-7-yl)-1,3,4-oxadiazol-2-one]	> 50000	475	105
O=c1oc(-c2ccccc2F)nn1Cc1ccc(-c2nnc(C(F)F)o2)cn1 [Compound 15, 3-[[5-[5-(difluoromethyl)-1,3,4-oxadiazol-2-yl]-2-pyridyl]methyl]-5-(2-fluorophenyl)-1,3,4-oxadiazol-2-one]	> 50000	524	95.5
O=c1oc(-c2ccc3cccnc3c2)nn1Cc1ccc(-c2nnc(C(F)F)o2)cn1 [Compound 17, 3-[[5-[5-(difluoromethyl)-1,3,4-oxadiazol-2-yl]-2-pyridyl]methyl]-5-(7-quinolyl)-1,3,4-oxadiazol-2-one]	> 50000	1089	45.9
O=c1oc(-c2ccc3scnc3c2)nn1Cc1ccc(-c2nnc(C(F)F)o2)cn1 [Compound 18, 5-(1,3-benzothiazol-5-yl)-3-[[5-[5-(difluoromethyl)-1,3,4-oxadiazol-2-yl]-2-pyridyl]methyl]-1,3,4-oxadiazol-2-one]	> 50000	768	65.1

Next, values leading:

IC50 (human recombinant HDAC1) [nM]	HDAC6 selectivity (fold) (human recombinant HDAC6)	IC50 (human recombinant HDAC6) [nM]	Structure (SMILES)
> 50000	416	120	O=c1oc(-c2ccccc2)nn1Cc1ccc(-c2nnc(C(F)F)o2)cn1 [Compound 1, 3-((5-(5-(difluoromethyl)-1,3,4-oxadiazol-2-yl)pyridin-2-yl)methyl)-5-phenyl-1,3,4-oxadiazol-2 (3H)-one]
> 50000	506	98.8	O=c1oc(-c2ccc(CN3CCCC3)cc2)nn1Cc1ccc(-c2nnc(C(F)F)o2)cn1 [Compound 2, 3-((5-(5-(difluoromethyl)-1,3,4-oxadiazol-2-yl)pyridin-2-yl)methyl)-5-(4-(pyrrolidin-1-ylmethyl)phenyl)-1,3,4-oxadiazol-2(3H)-one]
> 50000	3497	14.3	O=c1oc(-c2ccc3[nH]ccc3c2)nn1Cc1ccc(-c2nnc(C(F)F)o2)cn1 [Compound 3, 3-[[5-[5-(difluoromethyl)-1,3,4-oxadiazol-2-yl]-2-pyridyl]methyl]-5-(1H-indol-5-yl)-1,3,4-oxadiazol-2-one]
> 50000	595	84.1	CC1CCN(Cc2ccc(-c3nn(Cc4ccc(-c5nnc(C(F)F)o5)cn4)c(=O)o3)c(F)c2)CC1 [Compound 4, 3-[[5-[5-(difluoromethyl)-1,3,4-oxadiazol-2-yl]-2-pyridyl]methyl]-5-[2-fluoro-4-[(4-methyl-1-piperidyl)methyl]phenyl]-1,3,4-oxadiazol-2-one]
> 50000	546	91.6	CN1CCC(c2cccc(-c3nn(Cc4ccc(-c5nnc(C(F)F)o5)cn4)c(=O)o3)c2)CC1 [Compound 8, 3-[[5-[5-(difluoromethyl)-1,3,4-oxadiazol-2-yl]-2-pyridyl]methyl]-5-[3-(1-methyl-4-piperidyl)phenyl]-1,3,4-oxadiazol-2-one]
> 50000	607	82.4	CN1CCc2ccc(-c3nn(Cc4ccc(-c5nnc(C(F)F)o5)cn4)c(=O)o3)cc2C1 [Compound 12, 3-[[5-[5-(difluoromethyl)-1,3,4-oxadiazol-2-yl]-2-pyridyl]methyl]-5-(2-methyl-3,4-dihydro-1H-isoquinolin-7-yl)-1,3,4-oxadiazol-2-one]
> 50000	478	105	O=c1oc(-c2ccc3c(c2)CN(C2CCC2)CC3)nn1Cc1ccc(-c2nnc(C(F)F)o2)cn1 [Compound 14, 5-(2-cyclobutyl-3,4-dihydro-1H-isoquinolin-7-yl)-3-[[5-[5-(difluoromethyl)-1,3,4-oxadiazol-2-yl]-2-pyridyl]methyl]-1,3,4-oxadiazol-2-one]
> 50000	551	90.8	O=c1oc(-c2ccsc2)nn1Cc1ccc(-c2nnc(C(F)F)o2)cn1 [Compound 16, 3-[[5-[5-(difluoromethyl)-1,3,4-oxadiazol-2-yl]-2-pyridyl]methyl]-5-(3-thienyl)-1,3,4-oxadiazol-2-one]
> 50000	1511	33.1	Cn1ccc2cc(-c3nn(Cc4ccc(-c5nnc(C(F)F)o5)cn4)c(=O)o3)ccc21 [Compound 19]
> 50000	653	76.6	O=c1oc(-c2ccc(N3CCNCC3)cc2)nn1Cc1ccc(-c2nnc(C(F)F)o2)cn1 [Compound 20, 3-[[5-[5-(difluoromethyl)-1,3,4-oxadiazol-2-yl]-2-pyridyl]methyl]-5-(4-piperazin-1-ylphenyl)-1,3,4-oxadiazol-2-one]
> 50000	446	112	CN1CCN(c2ccc(-c3nn(Cc4ccc(-c5nnc(C(F)F)o5)cn4)c(=O)o3)cc2)CC1 [Compound 21, 3-[[5-[5-(difluoromethyl)-1,3,4-oxadiazol-2-yl]-2-pyridyl]methyl]-5-[4-(4-methylpiperazin-1-yl)phenyl]-1,3,4-oxadiazol-2-one]
